Data on five compounds can be found in patent US7737138B2 (priority 2004, dated 2010).

For orientation: EC50 means the midpoint of the concentration-response curve.

Series [1] deals with full-length tau (T40) / 12 kD PHF-core tau fragment in fibroblast cells (3T6) (Homo sapiens, UniProt P10636). As to the kind of experiment: cell-based. Type of series: cell-based.
In series [2] the target is tau-tau binding: truncated tau (residues 297-390; dGA) and full-length tau (T40) (Homo sapiens, UniProt P10636). The following applies: for IC50: read-out: B50.
tau-tau binding: truncated tau (residues 297-390; dGA) and full-length tau (T40), sequence (P10636 614-707): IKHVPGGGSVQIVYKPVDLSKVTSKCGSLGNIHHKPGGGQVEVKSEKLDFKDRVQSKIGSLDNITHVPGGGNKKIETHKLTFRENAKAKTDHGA
The subject of a further series is fibroblast cells (3T6). Details: unit not given beside the values.
Series [3] concerns viruses such as HIV and West Nile Virus. The following applies: MTC under the name Virostat, from Bioenvision Inc.; cited from earlier work.

Structures can show the parent of a compound that is named as a salt. Where two headings read alike, the source gives them in different places. A value given as a limit tells only on which side of the number the result lay.

full-length tau (T40) / 12 kD PHF-core tau fragment in fibroblast cells (3T6), sequence (P10636 612-707): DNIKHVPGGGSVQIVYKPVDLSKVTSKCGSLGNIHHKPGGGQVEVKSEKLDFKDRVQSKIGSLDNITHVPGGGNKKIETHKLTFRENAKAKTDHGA

Regarding “1,9-Diethyl Ethylthioninium chloride [DEETC]”, the midpoint of the response in series [1], the EC50, lay at 0.6 nM. Also, the IC50 in series [2] was determined as 3.7 µM. Further, the LD50 in the series with fibroblast cells (3T6) is 1.6 ± 0.4 (13).

`CCN(CC)c1ccc2nc3ccc(N(CC)CC)cc3[s+]c2c1` [ETZ, Ethylthioninium Chloride (ETC) Zinc Chloride (Double Salt)] registered a concentration giving a half-maximal response (EC50) in series [1] of 60 nM. The B50 in series [2] was 145.4 ± 5.7 (5).

For the compound `CN(C)c1ccc2nc3ccc(N(C)C)cc3[s+]c2c1` [MTC, Methythioninium Chloride], in series [3], the “viricidal activity in vitro” value was “potent viricidal activity”.

In series [1], Ethyl-thioninium iodide [ETI] yielded an EC50 of 60 nM. Moreover, the IC50 in series [2] (concentration of compound required to inhibit the tau-tau binding by 50%, […]) was over 500 µM.

As to Ethylthioninium Chloride [ETC], the EC50 in series [1] is 70 nM. Besides, in series [2], the IC50 was determined as 49 µM. Besides, the LD50 with fibroblast cells (3T6) was 32.0 ± 4.0 (26).
